Values joined by “and” are separate entries in the source; they are usually repeats but may differ in a detail not shown here. Equal entries are not always repeated.
Legend:
[1] = Selectivity of 1: reaction with ONOO^−; settings: for Fluorescence Intensity: pH 7, 25° C., 15 min
Method: Next, it was tested whether OCl^− and ONOO^− (peroxynitrite), would react with 1. A solution of 0, 1, 10, or 22 μM ONOO— in 0.3 M NaOH (20 μL) or 1, 10, 100, or 1000 μM NaOCl in water (20 μL) was added to the wells of a black 96-well plate. A solution of 10 μM 1 in DMSO (560 μL) and 5:95 MeCN/1.2 M phosphate pH 7 buffer (4.48 mL) was made; this solution (180 μL) was transferred to each of the wells. The samples were allowed to incubate at 25° C. for 15 min before the fluorescence was measured. […] This may be attributed to trace amounts of H2O2 in the ONOO^− solution.

[2] = Selectivity of 1: reaction with NO·; settings: for Fluorescence: 15 min minus 0 min
Method: The probe 1 was also exposed to NO· at various concentrations. A NO· solution was generated by the addition of H2SO4 to NaNO2. A round-bottom flask containing a saturated solution of NaNO2 was connected to a series of three bubblers and one Erlenmeyer flask; the first two bubblers contained 30% NaOH, and the third contained ultrapure water. The flask contained ultrapure water (10 mL). The solutions were degassed with argon for 30 min. Then a 2 M solution of H2SO4 (1 mL) was added to the saturated NaNO2 to produce a 1.8 mM solution of NO· (assuming saturation at 25° C.) in the flask. A solution of 10 μM 1 in DMSO (20 μL) was added to 5:95 acetonitrile/50 mM pH 7 potassium phosphate buffer (160 μL). The NO· solution (20 μL) was then added to the mixture containing 1. The fluorescence was measured immediately and again after 15 min at 25° C. Similar results as the results for NO2^− and NO3^− were obtained for NO· (FIG. 22 and Table 13). The data in Table 13 is the fluorescence at 15 min minus the fluorescence at 0 min.

[3] = Selectivity of 1: reaction with ^1O2; settings: for Fluorescence: 40 min minus 0 min
Method: Probe 1 was titrated with NaMoO4 and H2O2 to determine whether ^1O2 reacted with the probe 1. A solution of 100 μM 1 in ethanol (20 μL) was added to 5:95 methanol/50 mM phosphate pH 7 buffer (140 μL). Water, 1 mM sodium azide, or 104 U/mL catalase (20 μL) was added to the mixture. NaMoO4·2H2O (11.1 mg) was added to ultrapure water (2.00 mL). This solution was diluted to 20 μM, 200 μM, and 2.00 mM. H2O2 was diluted to 200 μM and 2.00 mM. Equal volumes of NaMoO4 solution and H2O2 were added together, and an aliquot (20 μL) was immediately transferred to the solution containing 1. The fluorescence intensity was measured immediately and again after incubation at 25° C. for 40 min. A large fluorescence increase was observed only in the samples containing […] of both Na2MoO4 and H2O2(FIG. 16 and Table 7). […] 10^4 UmL^−1 catalase was added to the solutions to verify that 1 indeed responded to excess H2O2 that had not reacted with the Na2MoO4. The addition of catalase abolished the fluorescence signal observed in the presence of high concentrations of H2O2(FIG. 16 and Table 7). The fluorescence values in Table 7 are the fluorescence at 40 min minus the fluorescence at 0 min.

[4] = Kinetics of the reaction of 1 with H2O2; settings: for F-F0 (515 nm) / [1]: [H2O2] = 0.625 mM

For `Oc1ccc2c(c1)Oc1cc(O/C=C/C[Se]c3ccccc3)ccc1[C@@]21OCc2ccccc21` [Compound 1, (S,E)-6′-((3-(Phenylselanyl)prop-1-en-1-yl)oxy)-3H-spiro[isobenzofuran-1,9′-xanthen]-3′-ol], the “fluorescence change with increasing ONOO^− concentration” value [1] was “slight increase in fluorescence intensity”, the “Fluorescence Intensity” value ([1]; 100 nM ONOO^−) was 23,606 and 21,961 and 20,229 and the “Fluorescence Intensity” value ([1]; 1.0 μM ONOO^−) was 46,271 and 39,358 and 35,209. For the same molecule, the “Fluorescence Intensity” value ([1]; 2.2 μM ONOO^−−) was 63,954 and 56,351 and 61,987, the “reaction with NO·” value [2] was “did not react” and the Fluorescence ([2]; 0 μM NO· or H2O2, pH 7, 25° C.) was 4,567 and 5,018 and 6,300. For the same molecule, the Fluorescence ([2]; 0.1 μM NO·) was 5,344 and 5,827 and 5,393, the Fluorescence ([2]; 1 μM NO·) was 6,268 and 5,961 and 5,430 and the Fluorescence ([2]; 10 μM NO·) was 6,104 and 6,207 and 5,735. The “cause of fluorescence increase (reaction with ^1O2)” value [3] was “not by ^1O2 itself”, the Fluorescence ([3]; NaN3, NaMoO4 0 μM, 0 μM H2O2) was 47,427 and 27,816 and 33,822 and the Fluorescence ([3]; NaN3, NaMoO4 0 μM, 10 μM H2O2) was 22,037 and 25,574 and 26,509. For the same molecule, the Fluorescence ([3]; NaN3, NaMoO4 0 μM, 100 μM H2O2) was 86,779 and 47,879 and 71,128, the Fluorescence ([3]; NaN3, NaMoO4 1 μM, 0 μM H2O2) was 17,056 and 15,590 and 28,737 and the Fluorescence ([3]; NaN3, NaMoO4 1 μM, 10 μM H2O2) was 47,687 and 30,921 and 55,460. The Fluorescence ([3]; NaN3, NaMoO4 1 μM, 100 μM H2O2) was 75,276 and 58,618 and 52,801, the Fluorescence ([3]; NaN3, NaMoO4 10 μM, 0 μM H2O2) was 48,985 and 26,189 and 39,286 and the Fluorescence ([3]; NaN3, NaMoO4 10 μM, 10 μM H2O2) was 41,011 and 44,837 and 41,481. For the same molecule, the Fluorescence ([3]; NaN3, NaMoO4 10 μM, 100 μM H2O2) was 128,720 and 99,199 and 137,922, the Fluorescence ([3]; NaN3, NaMoO4 100 μM, 0 μM H2O2) was 41,150 and 60,360 and 31,422 and the Fluorescence ([3]; NaN3, NaMoO4 100 μM, 10 μM H2O2) was 36,764 and 62,417 and 61,596. For the same molecule, the Fluorescence ([3]; NaN3, NaMoO4 100 μM, 100 μM H2O2) was 427,359 and 459,433 and 473,881, the Fluorescence ([3]; catalase, NaMoO4 1 μM, 100 μM H2O2) was 54,776 and 34,302 and 31,904 and the Fluorescence ([3]; catalase, NaMoO4 10 μM, 100 μM H2O2) was 66,499 and 39,161 and 54,221. For the same molecule, the Fluorescence ([3]; catalase, NaMoO4 100 μM, 100 μM H2O2) was 137,047 and 103,725 and 102,097, the Fluorescence ([3]; no additive, NaMoO4 0 μM, 0 μM H2O2) was 59,711 and 30,413 and 38,407 and the Fluorescence ([3]; no additive, NaMoO4 0 μM, 100 μM H2O2) was 48,948 and 86,970 and 68,803. The Fluorescence ([3]; no additive, NaMoO4 1 μM, 0 μM H2O2) was 36,829 and 38,478 and 40,456, the Fluorescence ([3]; no additive, NaMoO4 1 μM, 10 μM H2O2) was 27,103 and 23,437 and 25,142 and the Fluorescence ([3]; no additive, NaMoO4 1 μM, 100 μM H2O2) was 64,673 and 74,322 and 79,262. For the same molecule, the Fluorescence ([3]; no additive, NaMoO4 10 μM, 10 μM H2O2) was 33,243 and 34,233 and 26,543, the Fluorescence ([3]; no additive, NaMoO4 10 μM, 100 μM H2O2) was 113,217 and 132,450 and 119,014 and the Fluorescence ([3]; no additive, NaMoO4 100 μM, 0 μM H2O2) was 24,734 and 26,617 and 17,702. For the same molecule, the Fluorescence ([3]; no additive, NaMoO4 100 μM, 10 μM H2O2) was 38,768 and 55,874 and 53,722, the Fluorescence ([3]; no additive, NaMoO4 100 μM, 100 μM H2O2) was 468,686 and 476,166 and 482,448 and the “rate of reaction with H2O2 relative to boronate-based probes” value [4] was “seven times faster”. The “second order rate constant k” value ([4]; 5% MeCN in pH 7.5 HEPES buffer 50 mM, [1]=1.7 μM) was 9.82 ± 1.11 M⁻¹ s⁻¹, the “Slope k′” value ([4]; [H2O2] 0.625 mM) was 0.00251 s⁻¹ and the “Slope k′” value ([4]; [H2O2] 1.25 mM) was 0.01359 s⁻¹. For the same molecule, the “Slope k′” value ([4]; [H2O2] 2.5 mM) was 0.02432 s⁻¹, the “F-F0 (515 nm)” value ([4]; 30 s) was 145,691 and 101,161 and 83,026 and the “[1]” value ([4]; 30 s) was 1.3453 µM and 1.4596 µM and 1.5061 µM. For the same molecule, the “F-F0 (515 nm)” value ([4]; 90 s) was 220,196 and 277,036 and 236,883, the “[1]” value ([4]; 90 s) was 1.1541 µM and 1.0082 µM and 1.1113 µM and the “F-F0 (515 nm)” value ([4]; 150 s) was 301,900 and 391,059 and 348,470. The “[1]” value ([4]; 150 s) was 0.9444 µM and 0.7157 µM and 0.8249 µM, the “F-F0 (515 nm)” value ([4]; 210 s) was 355,049 and 458,596 and 422,910 and the “[1]” value ([4]; 210 s) was 0.8081 µM and 0.5424 µM and 0.6339 µM. The “F-F0 (515 nm)” value ([4]; 270 s) was 390,358 and 499,861 and 473,964, the “[1]” value ([4]; 270 s) was 0.7175 µM and 0.4365 µM and 0.5029 µM and the “F-F0 (515 nm)” value ([4]; 330 s) was 421,561 and 522,358 and 509,584.

— patent US12540150B1, “Fluorogenic probe using a Mislow-Evans rearrangement for real-time imaging of hydrogen peroxide” (University of Pittsburgh—Of the Commonwealth System of …, priority 2020, dated 2026)
